From the OligoGym collection
Values joined by “and” are separate entries in the source; they are usually repeats but may differ in a detail not shown here. Identical values can stand only once. After the bases stand the sugars from the 5' end (letter, count) and the backbone: PS all phosphorothioate, else s phosphorothioate and o phosphodiester by linkage. Methylation of C is not given here. e = 2'-O-(2-methoxyethyl) (MOE); k = constrained ethyl (cEt); d = 2'-deoxy (DNA); m = 2'-O-methyl

Molecular target: HSD17B13
Settings: ASO, HepaRG

| Sequence | target mRNA inhibition (1 µM) | further results |
| --- | --- | --- |
| CTAGGGAGGAGGTACT (sugars k3 d10 k3, PS) | 29% |  |
| GCATGGCTACAGATTG (sugars k3 d1 m1 d8 k3, PS) | 76% | target mRNA inhibition (0.02 µM): 2%; target mRNA inhibition (0.078 µM): 2%; target mRNA inhibition (0.313 µM): 31%; target mRNA inhibition (1.25 µM): 61%; target mRNA inhibition (5 µM): 78% |
| AAGTGCTTTTGTGATC (sugars k3 d10 k3, PS) | 41% |  |
| TCATTTAGAATACGCT (sugars k3 d10 k3, PS) | 20% |  |
| CACCTTATTAATATCC (sugars k3 d10 k3, PS) | 34% |  |
| AGGCTGTAAGAGTCAG (sugars k3 d9 k3 e1, PS) | 49% |  |
| CTAGTTTTCGGCACTC (sugars k3 d10 k3, PS) | 33% |  |
| GTTGCACCGTTTTGGG (sugars k3 d9 k3 e1, PS) | 45% |  |
| CTTTAGCTTAAACTCC (sugars k3 d10 k3, PS) | 69% |  |
| ATGGTGATCAGAAGCA (sugars k3 d10 k3, PS) | 85% | target mRNA inhibition (0.02 µM): 0%; target mRNA inhibition (0.078 µM): 28%; target mRNA inhibition (0.313 µM): 46%; target mRNA inhibition (1.25 µM): 80%; target mRNA inhibition (5 µM): 81% |
| GTTTTTCTCTTGACAA (sugars k3 d10 k3, PS) | 59% |  |
| ATTCTGTGTTCTTGTT (sugars k3 d10 k3, PS) | 67% |  |
| TCCTTTGTATTTCGCT (sugars k3 d10 k3, PS) | 68% |  |
| TCGGTCACCTTTCATA (sugars kkdddddddddkekek, PS) | 63% |  |
| CTCCATAATAATAGCT (sugars k3 d10 k3, PS) | 59% |  |
| CTATATAAATTCTGAC (sugars k3 d10 k3, PS) | 0% |  |
| ATTATTCACCACGATT (sugars k3 d10 k3, PS) | 29% |  |
| AAGAGGCTAGGGAAAT (sugars k3 d10 k3, PS) | 66% |  |
| GAAAUTGATACACCAA (sugars k3 d1 m1 d8 k3, PS) | 58% |  |
| CAAGTTTGTTCATAGT (sugars k3 d10 k3, PS) | 78% |  |
| TATAGGTAGCTAATGT (sugars k3 d10 k3, PS) | 31% |  |
| GTGGATTACATACAAG (sugars k3 d10 k3, PS) | 57% |  |
| TGGTGAACCCAGTATT (sugars k3 d10 k3, PS) | 0% |  |
| CTGCTAGTGCCAAACC (sugars kkdddddddddkekek, PS) | 51% |  |
| GGCACTCAGCTGCAGT (sugars k3 d10 k3, PS) | 49% |  |

| Sequence | target mRNA inhibition (1 µM) | further results |
| --- | --- | --- |
| TCCAGAATAGAGTTGC (sugars k3 d10 k3, PS) | 46% |  |
| AAATTTCAGTACCCAG (sugars k3 d10 k3, PS) | 46% |  |
| GACAACTGATGTCCAG (sugars k3 d10 k3, PS) | 12% |  |
| TGGATTACATACAAGA (sugars k3 d10 k3, PS) | 68% and 50% | target mRNA inhibition (0.02 µM): 0%; target mRNA inhibition (0.078 µM): 0%; target mRNA inhibition (0.313 µM): 21%; target mRNA inhibition (1.25 µM): 58%; target mRNA inhibition (5 µM): 87% |
| AACTGAAACGATCCTC (sugars k3 d10 k3, PS) | 52% |  |
| GTTAACCTGCAGCAGA (sugars k3 d10 k3, PS) | 51% |  |
| TTGGTATGGTAAGCCC (sugars k3 d10 k3, PS) | 62% |  |
| AGAGAGTAATCAGTTT (sugars k3 d9 k3 e1, PS) | 51% |  |
| AAAAGGCCCAAGGCTT (sugars k3 d10 k3, PS) | 30% |  |
| TGGGACCAAGGATATA (sugars k3 d1 m1 d8 k3, PS) | 51% |  |
| GAGCATTCATCAGATG (sugars k3 d10 k3, PS) | 64% |  |
| GTTGACCTCAAATGTC (sugars k3 d10 k3, PS) | 0% |  |
| GTTAGTATAGTTATCT (sugars k3 d9 k3 e1, PS) | 71% |  |
| TATAGTTATCTTCTCA (sugars k3 d1 m1 d8 k3, PS) | 33% |  |
| ACTAGGAAGTGATCCA (sugars k3 d10 k3, PS) | 58% |  |
| GCAAAGTTTGGGCAGA (sugars k3 d10 k3, PS) | 50% |  |
| TTCACCTGATTTAGAG (sugars k3 d10 k3, PS) | 9% |  |
| GAACCGTATTCCCAAC (sugars k3 d10 k3, PS) | 72% |  |
| GAGTGCATCTTAAGAT (sugars kkdddddddddkekek, PS) | 27% |  |
| TGCCAAACCAATGTTT (sugars kkdddddddddkekek, PS) | 61% |  |
| AGCTGGTAAAGGTAAG (sugars k3 d10 k3, PS) | 55% |  |
| GTGCTAAGTAGTAATT (sugars k3 d10 k3, PS) | 58% |  |
| TTGCATAAGAGCCAAA (sugars k3 d10 k3, PS) | 46% |  |
| CATCTAGAATTAAGGG (sugars k3 d10 k3, PS) | 53% |  |
| GCTGCTATTTAGGGCA (sugars k3 d10 k3, PS) | 53% |  |

| Sequence | target mRNA inhibition (1 µM) | further results |
| --- | --- | --- |
| GTATCTTATAAGACTA (sugars kkdddddddddkekek, PS) | 61% |  |
| AGGAUAGTCCATGCAA (sugars k3 d1 m1 d8 k3, PS) | 55% |  |
| TACGATGGAACAAAAA (sugars k3 d10 k3, PS) | 20% |  |
| CTCCGTTATAAGTTTC (sugars k3 d10 k3, PS) | 59% |  |
| TGGAAACATGCTTGGC (sugars k3 d10 k3, PS) | 62% |  |
| TATAGTAATCACAAGT (sugars k3 d10 k3, PS) | 53% |  |
| CTTAUTGGTAAGTATT (sugars k3 d1 m1 d8 k3, PS) | 0% |  |
| CTTCTATTAGTTGGCC (sugars k3 d10 k3, PS) | 11% |  |
| TATTAAGTACTGTGAG (sugars k3 d10 k3, PS) | 0% |  |
| TATTGGTAAGTATTCC (sugars k3 d1 m1 d8 k3, PS) | 41% |  |
| ATCAAGACATTCTAGC (sugars k3 d9 k3 e1, PS) | 52% |  |
| GCCTTACCAGAATTTA (sugars k3 d10 k3, PS) | 75% |  |
| AGAAGGACTTTCATAG (sugars k3 d10 k3, PS) | 46% |  |
| GTTGCACCGTTTTGGG (sugars k3 d10 k3, PS) | 56% |  |
| TTGGGTCCATTGTTTC (sugars k3 d10 k3, PS) | 44% |  |
| AATTATACTTTTCCGT (sugars k3 d10 k3, PS) | 66% |  |
| TAGTGTAAGCTGAGAG (sugars k3 d1 m1 d8 k3, PS) | 31% |  |
| GGGACCAAGGATATAT (sugars k3 d10 k3, PS) | 17% |  |
| CTAGGATGATGTTCAT (sugars k3 d10 k3, PS) | 47% |  |
| CTTGATCTCTTAGCTG (sugars k3 d10 k3, PS) | 51% |  |
| GAATCCATTCTATGCA (sugars k3 d10 k3, PS) | 47% |  |
| ATTCUGTGGCATGGCT (sugars k3 d1 m1 d8 k3, PS) | 59% |  |
| CATCUCTGGGACCAAG (sugars k3 d1 m1 d8 k3, PS) | 42% |  |
| TAGTTATCTTCTCACT (sugars k3 d10 k3, PS) | 52% |  |
| CCTTAGGAAAGCTCAT (sugars k3 d10 k3, PS) | 29% |  |

| Sequence | target mRNA inhibition (1 µM) | further results |
| --- | --- | --- |
| TGAAATCTTGTGTAAC (sugars k3 d10 k3, PS) | 43% |  |
| TGGCATGGCTACAGAT (sugars k3 d1 m1 d8 k3, PS) | 57% |  |
| CCAACCAAACTTCCAG (sugars k3 d1 m1 d8 k3, PS) | 30% |  |
| CATTGATTCGAAACTA (sugars k3 d10 k3, PS) | 40% |  |
| ATAGAGTTGCACCGTT (sugars k3 d9 k3 e1, PS) | 71% |  |
| AGTCTACCACATACGC (sugars k3 d10 k3, PS) | 65% |  |
| CAGACCTATGAAAAAC (sugars k3 d10 k3, PS) | 26% |  |
| AACAGTCTTAAACCTT (sugars k3 d9 k3 e1, PS) | 57% |  |
| CATCCTTGGTGCTGAG (sugars k3 d10 k3, PS) | 12% |  |
| TTTCACCTCAGGTGAC (sugars k3 d10 k3, PS) | 52% |  |
| ACAATTAACATTCGGC (sugars k3 d10 k3, PS) | 77% | target mRNA inhibition (0.02 µM): 13%; target mRNA inhibition (0.078 µM): 15%; target mRNA inhibition (0.313 µM): 43%; target mRNA inhibition (1.25 µM): 62%; target mRNA inhibition (5 µM): 79% |
| TTAGUCTTGATGTAGT (sugars k3 d1 m1 d8 k3, PS) | 50% |  |
| CACATATGTGAAGAGC (sugars kkdddddddddkekek, PS) | 53% |  |
| GCATCAAGACATTCTA (sugars k3 d1 m1 d8 k3, PS) | 51% |  |
| AGTATAGTTATCTTCT (sugars k3 d10 k3, PS) | 67% |  |
| AAAAACTTCACCAACG (sugars k3 d10 k3, PS) | 8% |  |
| AGCCACTGTGACGATG (sugars k3 d10 k3, PS) | 10% |  |
| GTAAGGAATCCCTTCG (sugars k3 d10 k3, PS) | 22% |  |
| AGTGAATCATTCAGTA (sugars k3 d10 k3, PS) | 86% | target mRNA inhibition (0.02 µM): 49%; target mRNA inhibition (0.078 µM): 54%; target mRNA inhibition (0.313 µM): 80%; target mRNA inhibition (1.25 µM): 93%; target mRNA inhibition (5 µM): 94% |
| ATGGGATGAGGTAAGG (sugars k3 d10 k3, PS) | 46% |  |
| TTAGUATAGTTATCTT (sugars k3 d1 m1 d8 k3, PS) | 22% |  |
| AAAAATCGCTGCTTAG (sugars k3 d10 k3, PS) | 25% |  |
| AACTTTTAGTCAGGTA (sugars k3 d10 k3, PS) | 49% |  |
| CAAGAGGATAGTCCAT (sugars k3 d10 k3, PS) | 58% |  |
